Test results published in US20190202836A1, “SELECTIVE DUAL INHIBITORS OF PI3 DELTA AND GAMMA PROTEIN KINASES” (Rhizen Pharmaceuticals SA, priority 2014, published 2019).

Assays:
[1] = test system: Female Wistar rats; test: Assay 7: Lipopolysaccharide induced pulmonary neutrophilia in female Wistar rat model; format: in vivo; settings: 10 mg/kg, oral, LPS intratracheally, BAL fluid 6 hours after LPS
Method: After the quarantine period, fasted animals were randomized and divided into various groups depending on their body weights. The test compound (Compound A1) was prepared as a suspension in a vehicle consisting of 0.5% methylcellulose in which Tween 80 as a suspending agent. The compound or vehicle was administered by oral gavage at a volume of 10 mL/kg. Female Wistar rats were anaesthetized with ketamine and LPS solution was administered intratracheally one hour after compound administration at a dose of 1 mg/kg. 6 hours after LPS instillation, animals were exsanguinated under anaesthesia, and then the trachea was cannulated and the lungs were lavaged with 5 ml aliquots of heparinised PBS (1 unit/ml) four times through a tracheal cannula (total volume 20 mL). Bronchoalveolar lavage (BAL) fluid was stored at 2-8° C. until assayed for total cell and differential leukocyte count. Bronchioalveolar fluid was centrifuged (500×g for 10 minutes) and the resulting cell pellet was resuspended in 0.5 ml of heparinised saline. The total numbers of white blood cells were determined in BAL fluid or blood by using a blood cell counter and was adjusted to 1×10^6 cell/ml. Differential cell count was calculated manually. […] The number of each cell type among 300 white blood cells in the cell smear was determined and expressed as a percentage. The number of […] in each BALf or blood was calculated.

[2] = Metabolic stability in mouse liver microsomes; format: in vitro ADME; settings: 1 μM test item, 60 minutes, 37° C., NADPH
Method: Metabolic stability studies were conducted on Compounds A, A1, and A2 as well as Example 128 of WO 2012/151525 using mouse, rat, dog, monkey, and human liver microsomes. The protocol for the studies with mouse, rat, and human liver microsomes (all from BD Gentest, USA) is provided below. 0.4 mg protein was preincubated with 2 mM NADPH (cofactor) in phosphate buffer (pH-7.4) for 15 minutes at 37° C. and then added with 1 μM test item and incubated further for 60 minutes in triplicate. The reaction mixture was terminated with methanol containing an internal standard and centrifuged further to analyze the test item remaining in the supernatant by LC-MS/MS. The percent parent compound remaining was calculated in comparison with similar samples terminated at 0 minutes.

[3] = test system: Female Wistar rats; test: Assay 11: Collagen induced arthritis (CIA) in Wistar rats; format: in vivo; settings: rat CIA, dosed therapeutically, 10 mg/kg/QD
[4] = target: T1, PI3K gamma (Mus musculus, UniProt Q9JHG7); test: Assay 4A3: c5a induced AktS473 phosphorylation in RAW 264.7 macrophages; format: cell-based; settings: c5a 50 ng/ml, read-out: Cellular IC50 PI3K gamma (c5a induced pAKT in RAW macrophages)
T1 construct: endogenous in cells; host or cells: RAW 264.7 macrophages
Method: The objective of this study was to determine the effect of Compound A1 on PI3Kγ kinase mediated c5a induced AktS473 phosphorylation in RAW 264.7 macrophages.
RAW 264.7 cells were treated with desired concentrations of the test compound for 15 minutes. 1 ml of 2× c5a was added such that the final concentration was 50 ng/ml and incubated for 15 minutes.
Media was discarded and washed with 1 ml of ice-cold 1× PBS.
250 μl of cell lysis buffer was added and incubated on ice for 30 minutes.
Samples were centrifuged and supernatant was stored at −80° C. until analysis
Samples were analyzed by Western Blotting using pAKT (S473) as the primary and anti-rabbit IgG-HRP as a secondary antibody.
Intensity of the bands was determined using ImageJ 1.42q (NIH, USA) and normalized to Actin (loading control). Data was plotted using GraphPad Prism (Version 5.02).

[5] = target: T2, PI3K alpha (Mus musculus, UniProt P42337); test: Assay 4A4: PDGF induced Akt phosphorylation in 3T3 cells; format: cell-based; settings: 3T3 fibroblasts
T2 construct: endogenous in cells; host or cells: 3T3 fibroblasts
Method: The objective of this study was to determine the effect of Compound A1 on PI3Kα kinase mediated AktS473 phosphorylation in PDGF induced 3T3 fibroblasts. • 3T3 cells were treated with desired concentrations of the test compound for 15 minutes. 1 ml of 2× PDGF was added such that the final concentration was 20 ng/ml and incubated for 10 minutes. • Media was discarded and washed with 1 ml of ice-cold 1× PBS. • 250 μl of cell lysis buffer was added and incubated on ice for 30 minutes. • Samples were centrifuged and supernatant was collected and stored at −80° C. until analysis. • Samples were analyzed by Western Blotting using pAKT (S473) as the primary and anti-rabbit IgG-HRP as a secondary antibody. • Intensity of the bands was determined using ImageJ 1.42q (NIH, USA) and normalized to Actin (loading control). Data was plotted using GraphPad Prism (Version 5.02).

[6] = target: T3, PI3K delta (Homo sapiens, UniProt O00329); test: Assay 4A1: Anti-IgM induced B-cell proliferation; format: cell-based; settings: isolated human B-cells, 72 hours; read-out: Cellular IC50 PI3K delta (anti-IgM induced human B-cell proliferation)
T3 construct: endogenous in cells; host or cells: isolated human B-cells
Method: The objective of this study was to assess the inhibitory potential of Compound A1 on anti-IgM induced human B-cell proliferation.
Isolated B-cells were re-suspended to 1.0×10^6 cells per ml. 100 μl of cell suspension was added to each well of a 96-well plate. Triplicates were maintained.
50 μl of drug dilution was added and mixed well. A DMSO blank and inducer blank were maintained.
The treated plate was incubated for 30 minutes at 37° C., 5% CO2 and then 50 μl of 4× inducer was added and mixed by pipetting.
The plate was incubated at 37° C., 5% CO2 for 72 hours.
Media was aspirated and 150 μl of DMSO was added to dissolve the formazan crystals.
Absorbance was read at A560 and A640 nm.

T2 sequence (P42337 whole entry): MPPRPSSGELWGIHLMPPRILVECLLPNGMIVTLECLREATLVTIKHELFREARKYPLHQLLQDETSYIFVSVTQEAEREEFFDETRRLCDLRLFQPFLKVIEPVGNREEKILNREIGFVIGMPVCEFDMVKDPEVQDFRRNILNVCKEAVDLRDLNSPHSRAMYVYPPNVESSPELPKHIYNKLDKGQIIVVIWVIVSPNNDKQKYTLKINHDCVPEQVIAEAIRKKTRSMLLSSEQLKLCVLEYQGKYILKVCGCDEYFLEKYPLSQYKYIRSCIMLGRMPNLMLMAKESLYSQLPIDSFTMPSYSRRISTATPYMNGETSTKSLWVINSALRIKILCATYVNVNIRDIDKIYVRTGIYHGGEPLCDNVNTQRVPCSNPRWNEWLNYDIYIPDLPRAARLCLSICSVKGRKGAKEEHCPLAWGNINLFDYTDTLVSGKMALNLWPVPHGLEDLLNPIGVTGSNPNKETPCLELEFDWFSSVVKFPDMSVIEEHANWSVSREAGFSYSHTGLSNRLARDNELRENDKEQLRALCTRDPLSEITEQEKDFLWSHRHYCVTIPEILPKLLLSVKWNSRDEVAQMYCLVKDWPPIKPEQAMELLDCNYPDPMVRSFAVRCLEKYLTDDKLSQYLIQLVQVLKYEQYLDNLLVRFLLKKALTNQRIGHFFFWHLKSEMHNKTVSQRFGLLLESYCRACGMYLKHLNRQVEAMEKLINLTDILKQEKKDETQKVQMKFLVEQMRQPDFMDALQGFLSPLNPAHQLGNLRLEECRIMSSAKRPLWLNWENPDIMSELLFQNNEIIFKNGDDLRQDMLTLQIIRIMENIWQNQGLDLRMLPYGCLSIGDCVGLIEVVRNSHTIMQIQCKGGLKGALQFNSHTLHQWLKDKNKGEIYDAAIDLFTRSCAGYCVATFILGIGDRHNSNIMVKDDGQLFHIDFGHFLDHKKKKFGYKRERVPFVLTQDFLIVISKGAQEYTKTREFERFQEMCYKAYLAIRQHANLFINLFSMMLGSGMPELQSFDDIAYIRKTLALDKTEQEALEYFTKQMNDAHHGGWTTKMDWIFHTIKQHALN
T2 sequence (P26450 whole entry partner): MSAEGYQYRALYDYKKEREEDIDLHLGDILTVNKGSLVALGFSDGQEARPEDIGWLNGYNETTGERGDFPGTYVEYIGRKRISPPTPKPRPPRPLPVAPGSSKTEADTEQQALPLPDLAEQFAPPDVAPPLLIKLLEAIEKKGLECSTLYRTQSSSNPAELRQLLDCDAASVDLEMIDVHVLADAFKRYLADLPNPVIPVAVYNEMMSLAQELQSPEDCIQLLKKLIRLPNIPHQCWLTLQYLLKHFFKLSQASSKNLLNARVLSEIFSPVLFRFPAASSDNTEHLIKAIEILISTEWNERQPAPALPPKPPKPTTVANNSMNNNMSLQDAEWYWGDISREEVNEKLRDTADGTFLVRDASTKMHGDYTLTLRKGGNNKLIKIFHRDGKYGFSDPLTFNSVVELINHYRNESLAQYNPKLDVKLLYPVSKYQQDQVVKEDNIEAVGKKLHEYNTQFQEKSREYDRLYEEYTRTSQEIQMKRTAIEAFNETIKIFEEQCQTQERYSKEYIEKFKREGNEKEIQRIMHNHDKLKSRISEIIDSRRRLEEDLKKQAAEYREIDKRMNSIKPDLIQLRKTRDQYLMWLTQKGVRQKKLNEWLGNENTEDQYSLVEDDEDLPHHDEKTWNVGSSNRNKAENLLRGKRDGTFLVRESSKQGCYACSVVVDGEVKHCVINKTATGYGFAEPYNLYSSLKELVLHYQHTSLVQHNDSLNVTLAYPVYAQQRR
T1 sequence (Q9JHG7 whole entry): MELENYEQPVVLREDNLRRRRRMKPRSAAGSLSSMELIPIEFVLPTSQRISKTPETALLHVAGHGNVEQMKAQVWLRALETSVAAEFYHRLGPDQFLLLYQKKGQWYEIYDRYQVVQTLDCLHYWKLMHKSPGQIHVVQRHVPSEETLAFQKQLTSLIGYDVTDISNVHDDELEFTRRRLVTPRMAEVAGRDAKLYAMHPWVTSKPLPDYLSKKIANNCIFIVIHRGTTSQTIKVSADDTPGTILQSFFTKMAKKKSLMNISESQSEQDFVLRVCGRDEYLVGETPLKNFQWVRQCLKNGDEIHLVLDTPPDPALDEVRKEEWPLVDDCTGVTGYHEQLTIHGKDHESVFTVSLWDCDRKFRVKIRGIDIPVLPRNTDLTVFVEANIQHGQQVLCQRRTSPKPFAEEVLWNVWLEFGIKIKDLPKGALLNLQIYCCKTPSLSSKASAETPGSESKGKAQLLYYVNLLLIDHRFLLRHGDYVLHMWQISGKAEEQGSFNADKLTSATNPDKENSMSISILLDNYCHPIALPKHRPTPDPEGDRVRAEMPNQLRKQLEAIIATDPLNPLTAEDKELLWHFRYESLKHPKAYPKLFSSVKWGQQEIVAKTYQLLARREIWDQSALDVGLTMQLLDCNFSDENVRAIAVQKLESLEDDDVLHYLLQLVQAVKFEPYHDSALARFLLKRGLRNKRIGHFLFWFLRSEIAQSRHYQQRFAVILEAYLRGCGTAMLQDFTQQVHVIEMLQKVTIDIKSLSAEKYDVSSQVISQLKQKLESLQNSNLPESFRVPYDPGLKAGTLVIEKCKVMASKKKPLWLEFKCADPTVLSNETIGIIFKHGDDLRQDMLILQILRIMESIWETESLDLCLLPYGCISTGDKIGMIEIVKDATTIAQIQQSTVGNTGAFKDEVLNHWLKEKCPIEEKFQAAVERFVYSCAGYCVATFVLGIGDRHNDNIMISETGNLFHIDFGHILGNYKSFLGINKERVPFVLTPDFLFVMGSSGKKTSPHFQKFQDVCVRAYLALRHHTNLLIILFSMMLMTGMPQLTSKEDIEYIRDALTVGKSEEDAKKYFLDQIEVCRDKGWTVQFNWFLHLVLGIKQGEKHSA
T3 sequence (O00329 whole entry): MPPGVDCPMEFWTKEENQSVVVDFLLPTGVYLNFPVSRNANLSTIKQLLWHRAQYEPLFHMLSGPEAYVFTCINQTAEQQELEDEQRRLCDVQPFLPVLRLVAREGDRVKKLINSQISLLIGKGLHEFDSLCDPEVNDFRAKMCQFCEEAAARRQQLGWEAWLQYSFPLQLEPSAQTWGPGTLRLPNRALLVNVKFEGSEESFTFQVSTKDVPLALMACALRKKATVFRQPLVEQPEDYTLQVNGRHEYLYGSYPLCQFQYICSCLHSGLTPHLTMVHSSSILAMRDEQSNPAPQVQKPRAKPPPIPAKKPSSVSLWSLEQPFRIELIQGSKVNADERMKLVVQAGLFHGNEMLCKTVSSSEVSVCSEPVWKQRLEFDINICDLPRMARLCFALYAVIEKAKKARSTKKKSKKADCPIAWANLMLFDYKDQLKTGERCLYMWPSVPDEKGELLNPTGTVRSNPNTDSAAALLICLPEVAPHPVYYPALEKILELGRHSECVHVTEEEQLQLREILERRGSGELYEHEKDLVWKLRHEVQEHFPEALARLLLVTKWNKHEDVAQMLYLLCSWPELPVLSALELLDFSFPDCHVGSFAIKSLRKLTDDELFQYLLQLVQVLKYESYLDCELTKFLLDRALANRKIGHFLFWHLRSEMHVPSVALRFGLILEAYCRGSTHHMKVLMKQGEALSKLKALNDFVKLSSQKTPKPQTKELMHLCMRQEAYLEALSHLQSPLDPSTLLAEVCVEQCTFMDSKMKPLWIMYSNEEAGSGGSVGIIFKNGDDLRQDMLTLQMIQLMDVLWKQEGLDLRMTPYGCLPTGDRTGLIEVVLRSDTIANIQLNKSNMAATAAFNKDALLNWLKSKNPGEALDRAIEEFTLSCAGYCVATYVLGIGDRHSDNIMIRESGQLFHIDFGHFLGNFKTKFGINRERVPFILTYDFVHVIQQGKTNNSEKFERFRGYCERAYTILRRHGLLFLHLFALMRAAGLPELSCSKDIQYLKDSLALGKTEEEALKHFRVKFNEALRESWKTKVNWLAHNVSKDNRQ
T3 sequence (P27986 whole entry partner): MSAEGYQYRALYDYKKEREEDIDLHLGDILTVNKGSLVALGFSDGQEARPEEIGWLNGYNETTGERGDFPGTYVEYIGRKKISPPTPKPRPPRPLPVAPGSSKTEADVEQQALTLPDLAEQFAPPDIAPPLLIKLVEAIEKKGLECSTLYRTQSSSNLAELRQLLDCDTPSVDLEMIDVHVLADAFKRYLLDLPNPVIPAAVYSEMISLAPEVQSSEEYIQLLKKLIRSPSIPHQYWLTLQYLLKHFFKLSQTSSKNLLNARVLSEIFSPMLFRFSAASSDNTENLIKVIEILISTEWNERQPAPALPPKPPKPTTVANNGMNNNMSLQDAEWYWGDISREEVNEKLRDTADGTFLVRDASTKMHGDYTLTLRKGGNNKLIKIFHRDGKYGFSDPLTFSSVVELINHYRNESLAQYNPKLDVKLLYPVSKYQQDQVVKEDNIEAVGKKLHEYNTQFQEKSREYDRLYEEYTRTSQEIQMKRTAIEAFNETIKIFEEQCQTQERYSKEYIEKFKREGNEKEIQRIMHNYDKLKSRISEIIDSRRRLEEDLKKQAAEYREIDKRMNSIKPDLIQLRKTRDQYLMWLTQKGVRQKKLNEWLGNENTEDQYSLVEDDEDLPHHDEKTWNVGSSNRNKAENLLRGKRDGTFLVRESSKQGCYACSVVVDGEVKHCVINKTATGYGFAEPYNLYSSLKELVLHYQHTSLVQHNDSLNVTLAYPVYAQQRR

## COc1ccc(-c2nn([C@@H](C)c3oc4cccc(F)c4c(=O)c3-c3cccc(F)c3)c3ncnc(N)c23)cc1NS(C)(=O)=O [Compound A1, (S)—N-(5-(4-amino-1-(1-(5-fluoro-3-(3-fluorophenyl)-4-oxo-4H-chromen-2-yl)ethyl)-1H-pyrazolo[3,4-d]pyrimidin-3-yl)-2-methoxyphenyl)methanesulfonamide]
[1]
  inhibition of neutrophil infiltration into the lungs compared to the control group: 65.29%
[2]
  Metabolic stability in liver microsomes (percent parent compound remaining), Mouse: 85.9%
[3]
  inhibition of cartilage (histopathology of all the hind and fore paws): 46.51%
  inhibition of inflammation (histopathology of all the hind and fore paws): 58.3%
  inhibition of pannus (histopathology of all the hind and fore paws): 49.18%
  reducing ankle diameter: significant efficacy
  reducing the average paw volumes of both the hind paws: significant efficacy
[3]; prophylactic and therapeutic paws
  reduction of the clinical score: significant efficacy
[4]
  IC50: 51.7 nM
[5]; 10 μM
  inhibition of PDGF induced AktS473 phosphorylation at 10 μM: No inhibition
[5]; PDGF 20 ng/ml, read-out: Cellular IC50 PI3K alpha (PDGF induced pAKT in 3T3 fibroblasts)
  IC50: > 10000 nM
[6]
  IC50: 11 nM
